# Test results taken from patent publication US20130158035A1, “[…] COMPOUNDS” (Brigham Young University, priority 2010, published 2013).
# System: MDCK cells
# Assay: HGF-induced epithelial-mesenchymal transition / migration of MDCK cells on transwell filters (crystal violet densitometry)
# Format: cell-based
# Details: Table 1; 10 μM compound, then HGF, 24 hours; percentage like untreated controls (unstimulated cells = maximal effect, HGF only = nil)
# Protocol: MDCK cells were seeded at confluency into the wells of a transwell filter in DMEM with 10% fetal bovine serum. Cells were cultured for 24 hours. Test compounds, dissolved in DMSO, were added to each test well to a 10 μM final concentration, and then hepatocyte growth factor (HGF) was then added. The MDCK cells were cultured for 24 hours. Concurrently, controls treated with and without HGF and with no test compounds were also prepared.
# After post-HGF addition culturing, transwell filters were prepared by repeated washing using ice cold PBS. The cells were then fixed with paraformaldehyde (3.7%) on ice for 15 minutes to the filters. After fixation, the transwell filters were washed repeatedly with PBS followed by staining with crystal violet for 15 minutes. The transwell filters were washed again with distilled water.
# The upper surface of the transwell filters were swabbed using a cotton-tipped probe. The filters were photographed using a gel documentation system. Densitometry measurements were made on the test samples and compared with control samples.
row,Compound,Assay Value [%]
1,O=C1CC(c2cc(F)ccc2F)c2cc3c(cc2N1)CCC3 (centres unmarked) [Compound 2],90.3
2,COc1cc(C2CC(=O)Nc3cc4c(cc32)OCCO4)cc(OC)c1OC (centres unmarked) [Compound 3],92.4
3,O=C1CC(c2cc(Br)ccc2F)c2cc3c(cc2N1)CCC3 (centres unmarked) [Compound 4],36.1
4,COc1cc(Br)c(C2CC(=O)Nc3cc4c(cc32)OCCO4)cc1OC (centres unmarked) [Compound 5],29.3
5,COc1cc(C2CC(=O)Nc3cc4c(cc32)OCCO4)cc(Br)c1OC (centres unmarked) [Compound 6],52.2
6,O=C1CC(c2cccc3ccccc23)c2cc3c(cc2N1)OCCO3 (centres unmarked) [Compound 7],17.1
7,CCOc1c(Br)cc(C2CC(=O)Nc3cc4c(cc32)OCCO4)cc1OC (centres unmarked) [Compound 8],48.8
8,CCOc1ccc(Br)cc1C1CC(=O)Nc2cc3c(cc21)OCCO3 (centres unmarked) [Compound 9],64.9
9,COc1ccc(Cl)cc1C1CC(=O)Nc2cc3c(cc21)OCCO3 (centres unmarked) [Compound 10],62.9
10,O=C1CC(c2cc(Br)ccc2F)c2cc3c(cc2N1)OCCO3 (centres unmarked) [Compound 11],27.9
11,O=C1CC(c2ccccc2F)c2cc3c(cc2N1)OCCO3 (centres unmarked) [Compound 12],23.4
12,COc1cc2c(cc1OC)C(c1cccc(Cl)c1Cl)CC(=O)N2 (centres unmarked) [Compound 13],>5
13,Cc1ccc(C)c(C2CC(=O)Nc3cc4c(cc32)OCCO4)c1 (centres unmarked) [Compound 14],8.8
14,COc1ccc(C2CC(=O)Nc3cc4c(cc32)OCCO4)cc1OC (centres unmarked) [Compound 15],12.9
15,COc1ccc(OC)c(C2CC(=O)Nc3cc4c(cc32)OCCO4)c1 (centres unmarked) [Compound 16],15.1
16,COc1cccc(C2CC(=O)Nc3cc4c(cc32)OCCO4)c1 (centres unmarked) [Compound 17],10.7
17,CCOc1cc(C2CC(=O)Nc3cc4c(cc32)OCCO4)ccc1O (centres unmarked) [Compound 18],15.9
18,O=C1CC(c2cccc(O)c2)c2cc3c(cc2N1)OCCO3 (centres unmarked) [Compound 19],7.8
19,O=C1CC(c2cc3c(cc2Cl)OCO3)c2cc3c(cc2N1)OCCO3 (centres unmarked) [Compound 20],5.9
20,O=C1CC(c2ccc(F)c(Br)c2)c2cc3c(cc2N1)OCCO3 (centres unmarked) [Compound 21],11.2
21,COc1cc2c(c(OC)c1)C(c1cc(OC)ccc1OC)CC(=O)N2 (centres unmarked) [Compound 22],8.8
22,COc1cccc(C2CC(=O)Nc3cc4c(cc32)OCCO4)c1OC (centres unmarked) [Compound 23],69.3
23,COc1ccc(C2CC(=O)Nc3cc4c(cc32)OCCO4)cc1 (centres unmarked) [Compound 24],100
24,COc1cccc(C2CC(=O)Nc3cc4c(cc32)CCC4)c1OC (centres unmarked) [Compound 26],90.4
25,O=C1CC(c2cc3c(cc2Br)OCO3)c2cc3c(cc2N1)CCC3 (centres unmarked) [Compound 27],87.2
26,O=C1CC(c2ccccc2C(F)(F)F)c2cc3c(cc2N1)CCC3 (centres unmarked) [Compound 28],95.2
27,COc1cccc(C2CC(=O)Nc3cc4c(cc32)CCC4)c1 (centres unmarked) [Compound 29],69.3
28,COc1ccc(OC)c(C2CC(=O)Nc3cc(OC)c(OC)c(OC)c32)c1 (centres unmarked) [Compound 30],52.3
29,COc1cc(C2CC(=O)Nc3cc4c(cc32)OCCO4)cc(OC)c1O (centres unmarked) [Compound 32],88.2

# Same assay, conditions: Table 2; 10 μM compound, then HGF, 24 hours; percentage like untreated controls (unstimulated cells = maximal effect, HGF only = nil)
row,Compound,Assay Value [%]
1,CCOc1ccccc1C1CC(=O)Nc2cc(C)c(C)cc21 (centres unmarked) [Compound 33],<5
2,COc1ccccc1C1CC(=O)Nc2cc(C)c(C)cc21 (centres unmarked) [Compound 34],<5
3,O=C1CC(c2ccccc2Br)c2cc3c(cc2N1)OCCO3 (centres unmarked) [Compound 36],<5
4,O=C1CC(c2ccccc2Cl)c2cc3c(cc2N1)OCCO3 (centres unmarked) [Compound 37],<5
5,COc1ccccc1C1CC(=O)Nc2cc3c(cc21)OCCO3 (centres unmarked) [Compound 38],<5
6,CCOc1c(Br)cc(C2CC(=O)Nc3cc(OC)c(OC)cc32)cc1OC (centres unmarked) [Compound 39],<5
7,COc1cc2c(cc1OC)C(c1ccccc1C)CC(=O)N2 (centres unmarked) [Compound 40],<5
8,COc1cc2c(cc1OC)C(c1cccc(Cl)c1)CC(=O)N2 (centres unmarked) [Compound 41],<5
9,COc1cc2c(cc1OC)C(c1ccccc1OCc1ccccc1)CC(=O)N2 (centres unmarked) [Compound 42],<5
10,CCCOc1ccc(C2CC(=O)Nc3cc(OC)c(OC)cc32)cc1 (centres unmarked) [Compound 43],<5
11,O=C1CC(c2cccc(F)c2)c2cc3c(cc2N1)OCCO3 (centres unmarked) [Compound 44],<5
12,Cc1ccccc1C1CC(=O)Nc2cc3c(cc21)OCCO3 (centres unmarked) [Compound 45],<5
13,COc1cccc(C2CC(=O)Nc3cc4c(cc32)OCCO4)c1OC (centres unmarked) [Compound 46],<5
14,CCCCOc1ccccc1C1CC(=O)Nc2cc(OC)c(OC)cc21 (centres unmarked) [Compound 47],<5
15,COc1cc(Br)c(C2CC(=O)Nc3cc(OC)c(OC)cc32)cc1OC (centres unmarked) [Compound 48],<5
16,COc1cc2c(cc1OC)C(c1ccc(Cl)cc1Cl)CC(=O)N2 (centres unmarked) [Compound 49],<5
17,CC(C)Oc1ccccc1C1CC(=O)Nc2cc3c(cc21)OCCO3 (centres unmarked) [Compound 50],<5
18,O=C1CC(c2ccc(Cl)c(Cl)c2)c2cc3c(cc2N1)OCCO3 (centres unmarked) [Compound 51],<5
19,COc1cc2c(cc1OC)C(c1cc(Br)c(OC)c(OC)c1)CC(=O)N2 (centres unmarked) [Compound 52],<5

row,Compound,Assay Value [%]
1,O=C1CC(c2ccc([N+](=O)[O-])cc2)c2cc3c(cc2N1)OCCO3 (centres unmarked) [Compound 53],<5
2,Cc1ccc(C2CC(=O)Nc3cc4c(cc32)OCCO4)cc1 (centres unmarked) [Compound 54],<5
3,COc1cc2c(cc1OC)C(c1ccc(Cl)cc1)CC(=O)N2 (centres unmarked) [Compound 55],<5
4,O=C1CC(c2ccccc2OCc2ccccc2)c2cc3c(cc2N1)OCCO3 (centres unmarked) [Compound 56],<5
5,COc1cc2c(cc1OC)C(c1cc(C)ccc1C)CC(=O)N2 (centres unmarked) [Compound 57],<5
6,O=C1CC(c2cccc(OCc3ccccc3)c2)c2cc3c(cc2N1)OCCO3 (centres unmarked) [Compound 58],<5
7,COc1cc2c(cc1OC)C(c1cccc(Br)c1)CC(=O)N2 (centres unmarked) [Compound 59],<5
8,COc1cc2c(cc1OC)C(c1cccc(OCc3ccccc3)c1)CC(=O)N2 (centres unmarked) [Compound 60],<5
9,CCOc1ccccc1C1CC(=O)Nc2cc(OC)c(OC)cc21 (centres unmarked) [Compound 61],<5
10,O=C1CC(c2ccc(F)cc2)c2cc3c(cc2N1)OCCO3 (centres unmarked) [Compound 62],<5
11,CCOc1ccc(C2CC(=O)Nc3cc4c(cc32)OCCO4)cc1OC (centres unmarked) [Compound 63],<5
12,COc1cc2c(cc1OC)C(c1cccc(C)c1)CC(=O)N2 (centres unmarked) [Compound 64],<5
13,COc1cc2c(cc1OC)C(c1cc(OC)c(OC)cc1OC)CC(=O)N2 (centres unmarked) [Compound 65],<5
14,COc1cc2c(cc1OC)C(c1cc(Br)ccc1OC)CC(=O)N2 (centres unmarked) [Compound 66],<5
15,O=C1CC(c2ccccc2[N+](=O)[O-])c2cc3c(cc2N1)OCCO3 (centres unmarked) [Compound 67],<5
16,CSc1ccc(C2CC(=O)Nc3cc4c(cc32)OCCO4)cc1 (centres unmarked) [Compound 68],<5
17,O=C1CC(c2ccccc2F)c2cc3c(cc2N1)OCCO3 (centres unmarked) [Compound 69],<5
18,COc1cc(C2CC(=O)Nc3cc4c(cc32)OCCO4)ccc1OCc1ccccc1 (centres unmarked) [Compound 70],<5
19,CC(C)c1ccc(C2CC(=O)Nc3cc4c(cc32)OCO4)cc1 (centres unmarked) [Compound 71],<5

row,Compound,Assay Value [%]
1,COc1cc2c(cc1OC)C(c1cc(F)ccc1F)CC(=O)N2 (centres unmarked) [Compound 72],<5
2,CC(C)Oc1ccc(C2CC(=O)Nc3cc4c(cc32)OCCO4)cc1 (centres unmarked) [Compound 73],<5
3,CCOc1cc2c(cc1OCC)C(c1ccccc1F)CC(=O)N2 (centres unmarked) [Compound 74],<5
4,O=C1CC(c2cccc(F)c2F)c2cc3c(cc2N1)OCO3 (centres unmarked) [Compound 75],<5
5,O=C1CC(c2ccc(O)cc2)c2cc3c(cc2N1)OCO3 (centres unmarked) [Compound 76],<5
6,O=C1CC(c2cc(F)cc(F)c2)c2cc3c(cc2N1)OCO3 (centres unmarked) [Compound 77],<5
7,O=C1CC(c2ccc(OC(F)(F)F)cc2)c2cc3c(cc2N1)OCCO3 (centres unmarked) [Compound 78],<5
8,CC(C)c1ccc(C2CC(=O)Nc3cc4c(cc32)OCCO4)cc1 (centres unmarked) [Compound 79],<5
9,CN(C)c1ccc(C2CC(=O)Nc3cc4c(cc32)OCO4)cc1 (centres unmarked) [Compound 80],<5
10,CCOc1ccc(C2CC(=O)Nc3cc4c(cc32)OCO4)cc1 (centres unmarked) [Compound 81],<5
11,O=C1CC(c2ccc(F)cc2F)c2cc3c(cc2N1)OCO3 (centres unmarked) [Compound 82],<5
12,Cc1ccc(C)c(C2CC(=O)Nc3cc4c(cc32)OCO4)c1 (centres unmarked) [Compound 83],<5
13,COc1ccc(C2CC(=O)Nc3cc4c(cc32)OCO4)cc1Cl (centres unmarked) [Compound 84],<5
14,Cc1cccc(C2CC(=O)Nc3cc4c(cc32)OCO4)c1 (centres unmarked) [Compound 85],<5
15,O=C1CC(c2ccccc2)c2cc3c(cc2N1)OCO3 (centres unmarked) [Compound 86],<5
16,O=C1CC(c2ccccc2C(F)(F)F)c2cc3c(cc2N1)OCO3 (centres unmarked) [Compound 87],<5
17,O=C1CC(c2ccc3c(c2)OCO3)c2cc3c(cc2N1)OCO3 (centres unmarked) [Compound 88],<5
18,Cc1ccc(C2CC(=O)Nc3cc4c(cc32)OCO4)cc1Br (centres unmarked) [Compound 89],<5
19,COc1c(O)cccc1C1CC(=O)Nc2cc3c(cc21)OCO3 (centres unmarked) [Compound 90],<5
